According to ChEMBL document CHEMBL1909046, “DrugMatrix in vitro pharmacology data”:

Columns and labels:
[1] = molecular target: T1, Type-2 angiotensin II receptor (Homo sapiens, UniProt P50052); type: cell-based; details: cho-k1; also: in other assays of this panel Not Active means under 50% inhibition at 10 µM
T1 sequence (P50052 whole entry): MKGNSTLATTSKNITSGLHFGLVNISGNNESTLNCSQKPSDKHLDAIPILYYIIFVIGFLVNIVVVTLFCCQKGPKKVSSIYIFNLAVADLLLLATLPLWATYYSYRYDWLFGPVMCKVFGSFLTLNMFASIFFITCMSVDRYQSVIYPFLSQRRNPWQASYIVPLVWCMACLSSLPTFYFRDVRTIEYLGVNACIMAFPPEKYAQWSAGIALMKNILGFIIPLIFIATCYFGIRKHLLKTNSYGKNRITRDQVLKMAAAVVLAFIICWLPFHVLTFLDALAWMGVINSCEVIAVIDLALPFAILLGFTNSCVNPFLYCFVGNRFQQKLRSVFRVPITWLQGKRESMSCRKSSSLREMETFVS

[2] = DRUGMATRIX: Sigma2 radioligand binding (ligand: [3H] Ifenprodil); type: cell membranes, Rattus norvegicus, Wistar, Brain, Membrane; details: Not Active = under 50% inhibition at 10 µM
Insulin receptor = Insulin receptor (Rattus norvegicus, UniProt P15127); type: cell membranes, Wistar, Liver, Membrane; also: in other assays of this panel Not Active means under 50% inhibition at 10 µM
Insulin receptor, sequence (P15127 27-759 limits assumed): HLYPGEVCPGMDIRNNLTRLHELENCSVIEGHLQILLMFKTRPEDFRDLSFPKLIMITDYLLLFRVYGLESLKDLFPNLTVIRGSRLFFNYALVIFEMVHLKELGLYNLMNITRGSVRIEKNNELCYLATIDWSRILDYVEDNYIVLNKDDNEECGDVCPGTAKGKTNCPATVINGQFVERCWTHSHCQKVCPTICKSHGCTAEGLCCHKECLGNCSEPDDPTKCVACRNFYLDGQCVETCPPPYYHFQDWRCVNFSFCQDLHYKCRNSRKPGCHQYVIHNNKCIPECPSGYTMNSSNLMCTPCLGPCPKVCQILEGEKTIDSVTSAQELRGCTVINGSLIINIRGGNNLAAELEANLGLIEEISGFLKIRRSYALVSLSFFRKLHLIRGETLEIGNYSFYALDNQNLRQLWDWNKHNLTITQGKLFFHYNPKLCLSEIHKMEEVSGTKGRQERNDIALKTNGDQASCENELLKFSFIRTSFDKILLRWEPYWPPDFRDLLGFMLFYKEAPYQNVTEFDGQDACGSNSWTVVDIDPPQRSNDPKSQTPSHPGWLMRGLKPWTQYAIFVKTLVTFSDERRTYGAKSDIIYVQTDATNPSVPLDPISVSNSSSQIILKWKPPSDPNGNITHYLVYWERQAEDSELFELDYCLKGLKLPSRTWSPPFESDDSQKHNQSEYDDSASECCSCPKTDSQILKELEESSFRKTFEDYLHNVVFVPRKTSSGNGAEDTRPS
Insulin receptor, sequence (P15127 764-1383 limits assumed): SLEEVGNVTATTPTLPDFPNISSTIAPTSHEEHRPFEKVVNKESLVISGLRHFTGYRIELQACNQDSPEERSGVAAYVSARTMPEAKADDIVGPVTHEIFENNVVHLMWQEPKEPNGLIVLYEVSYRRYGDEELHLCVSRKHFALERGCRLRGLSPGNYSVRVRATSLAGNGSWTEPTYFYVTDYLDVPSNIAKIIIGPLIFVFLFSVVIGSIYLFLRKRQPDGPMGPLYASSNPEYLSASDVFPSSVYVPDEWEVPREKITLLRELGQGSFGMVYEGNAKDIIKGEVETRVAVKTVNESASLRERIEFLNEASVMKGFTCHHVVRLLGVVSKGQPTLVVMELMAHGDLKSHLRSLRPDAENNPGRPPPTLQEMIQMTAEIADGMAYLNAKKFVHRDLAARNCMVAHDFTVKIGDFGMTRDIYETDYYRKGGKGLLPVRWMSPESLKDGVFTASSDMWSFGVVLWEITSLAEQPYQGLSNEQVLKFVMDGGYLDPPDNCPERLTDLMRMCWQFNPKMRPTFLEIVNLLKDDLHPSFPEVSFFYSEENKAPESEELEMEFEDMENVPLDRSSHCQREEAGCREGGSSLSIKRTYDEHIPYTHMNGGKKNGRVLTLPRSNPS

[3] = molecular target: T2, Muscarinic acetylcholine receptor M4 (Homo sapiens, UniProt P08173); type: cell membranes, CHO-K1, Membrane; details: cho-k1; also: in other assays of this panel Not Active means under 50% inhibition at 10 µM
T2 sequence (P08173 whole entry): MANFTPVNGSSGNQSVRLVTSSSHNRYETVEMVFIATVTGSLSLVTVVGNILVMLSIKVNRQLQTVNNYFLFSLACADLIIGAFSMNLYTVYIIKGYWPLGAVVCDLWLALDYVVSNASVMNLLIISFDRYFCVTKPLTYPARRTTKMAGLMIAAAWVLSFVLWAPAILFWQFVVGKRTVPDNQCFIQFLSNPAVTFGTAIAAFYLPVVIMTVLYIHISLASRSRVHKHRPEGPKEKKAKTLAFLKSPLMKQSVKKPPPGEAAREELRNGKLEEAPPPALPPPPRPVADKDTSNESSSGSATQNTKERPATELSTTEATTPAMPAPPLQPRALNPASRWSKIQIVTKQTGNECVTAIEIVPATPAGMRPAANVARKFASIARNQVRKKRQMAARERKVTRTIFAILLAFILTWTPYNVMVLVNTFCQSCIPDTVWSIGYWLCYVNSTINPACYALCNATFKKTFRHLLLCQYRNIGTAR

[4] = DRUGMATRIX: Phosphodiesterase PDE3 enzyme inhibition (substrate: [3H]cAMP + cAMP); type: tissue-based, Homo sapiens; details: platelet, Not Active = under 50% inhibition at 10 µM
Cytochrome P450 2C9 = Cytochrome P450 2C9 (Homo sapiens, UniProt P11712); details: bti-tn-5b1-4; also: in other assays of this panel Not Active means under 50% inhibition at 10 µM
Cytochrome P450 2C9, sequence (P11712 whole entry): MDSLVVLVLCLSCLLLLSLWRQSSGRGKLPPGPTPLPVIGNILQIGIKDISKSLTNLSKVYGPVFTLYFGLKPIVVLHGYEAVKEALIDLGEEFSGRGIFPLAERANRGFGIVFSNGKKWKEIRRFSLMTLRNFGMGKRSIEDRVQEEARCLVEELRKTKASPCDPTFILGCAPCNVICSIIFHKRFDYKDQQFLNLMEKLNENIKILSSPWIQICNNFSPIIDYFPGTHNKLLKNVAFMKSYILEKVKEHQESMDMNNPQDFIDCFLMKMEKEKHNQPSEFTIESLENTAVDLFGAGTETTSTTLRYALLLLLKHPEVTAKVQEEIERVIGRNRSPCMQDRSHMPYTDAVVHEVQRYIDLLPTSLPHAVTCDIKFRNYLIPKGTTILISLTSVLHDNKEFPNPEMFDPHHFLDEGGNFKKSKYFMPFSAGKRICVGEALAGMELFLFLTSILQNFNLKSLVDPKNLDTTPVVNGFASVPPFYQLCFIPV

| SMILES | IC50 [1] | IC50 [2] | Ki [2] | IC50 (Insulin receptor) | IC50 [3] | IC50 [4] | Ki [4] | IC50 (Cytochrome P450 2C9) | Ki (Cytochrome P450 2C9) | IC50 ([4]; read-out: IC50) [nM] |
| --- | --- | --- | --- | --- | --- | --- | --- | --- | --- | --- |
| Cc1c(N(C)CS(=O)(=O)[O-])c(=O)n(-c2ccccc2)n1C.[Na+] [DIPYRONE SODIUM] | Not Active | Not Active | Not Active | Not Active | Not Active | Not Active | Not Active | Not Active | Not Active |  |
| CC[C@]1(O)CC[C@H]2[C@@H]3CCC4=CCCC[C@@H]4[C@H]3CC[C@@]21C | Not Active | Not Active | Not Active | Not Active | Not Active | Not Active | Not Active | Not Active | Not Active |  |
| CCOC(=O)n1ccn(C)c1=S [CARBIMAZOLE] | Not Active | Not Active | Not Active | Not Active | Not Active | Not Active | Not Active | Not Active | Not Active |  |
| COc1ccc(Cc2nccc3cc(OC)c(OC)cc23)cc1OC [PAPAVERINE] | Not Active | Not Active | Not Active | Not Active | Not Active |  |  | Not Active | Not Active | 665 |
| C#C[C@]1(O)CC[C@H]2[C@@H]3CCc4cc(O)ccc4[C@H]3CC[C@@]21C [ETHINYL ESTRADIOL] | Not Active | Not Active | Not Active | Not Active | Not Active | Not Active | Not Active | Not Active | Not Active |  |
| C[C@H]([C@](O)(Cn1cncn1)c1ccc(F)cc1F)S(C)(=O)=O [GENACONAZOLE] | Not Active | Not Active | Not Active | Not Active | Not Active | Not Active | Not Active | Not Active | Not Active |  |
| CC(C)C[C@H]1C(=O)N2CCC[C@H]2[C@]2(O)O[C@](NC(=O)[C@@H]3C=C4c5cccc6[nH]c(Br)c(c56)C[C@H]4N(C)C3)(C(C)C)C(=O)N12 [BROMOCRIPTINE] | Not Active | Not Active | Not Active | Not Active | Not Active | Not Active | Not Active | Not Active | Not Active |  |
| CCOC(=O)[C@H](CCc1ccccc1)N[C@@H](C)C(=O)N1CCC[C@H]1C(=O)O | Not Active | Not Active | Not Active | Not Active | Not Active | Not Active | Not Active | Not Active | Not Active |  |
| Nn1nnc2ccccc21 | Not Active | Not Active | Not Active | Not Active | Not Active | Not Active | Not Active | Not Active | Not Active |  |
| CC(C)(CO)C(O)C(=O)NCCCO (stereo unspecified) [PANTHENOL] | Not Active | Not Active | Not Active | Not Active | Not Active | Not Active | Not Active | Not Active | Not Active |  |
| O=C(O)Cc1ccc(-c2ccccc2)cc1 [FELBINAC] | Not Active | Not Active | Not Active | Not Active | Not Active | Not Active | Not Active | Not Active | Not Active |  |
| C[C@H](C(=O)O)c1cccc(C(=O)c2ccccc2)c1 [DEXKETOPROFEN] | Not Active | Not Active | Not Active | Not Active | Not Active | Not Active | Not Active | Not Active | Not Active |  |
| CC[C@H]1OC(=O)[C@H](C)[C@@H](O[C@H]2C[C@@](C)(OC)[C@@H](O)[C@H](C)O2)[C@H](C)[C@@H](O[C@@H]2O[C@H](C)C[C@H](N(C)C)[C@H]2O)[C@](C)(OC)C[C@@H](C)C(=O)[C@H](C)[C@@H](O)[C@]1(C)O [CLARITHROMYCIN] | Not Active | Not Active | Not Active | Not Active | Not Active | Not Active | Not Active | Not Active | Not Active |  |
